system: HCV replicon; assay: Replicon based assay of HCV replication inhibition (NPT ELISA); assay type: cell-based, Hepatitis C virus; conditions: Hepatitis C virus, replicon based assay of HCV replication inhibition; Table IV; read-out: Activity
How it was run: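 NPT (neomycin phosphotransferase) content, proportional to replicon replication, quantified by capture ELISA on day four. Before that, replicon-bearing Huh-7 cells in G418-free screening medium were exposed three days at 37° C to compound, typically six doses from 10 to 0.03 micromolar, with equal DMSO across wells.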

| Compound | EC50 [nM] |
| --- | --- |
| Cc1ccc(C#CCCOc2ccc(Nc3nc(-c4cccnc4)cs3)cc2C(F)(F)F)cc1 [compound 948, N-(4-(4-p-tolylbut-3-ynyloxy)-3-(trifluoromethyl)phenyl)-4-(pyridin-3-yl)thiazol-2-amine] | < 1000 |
| Cc1cccc(C#CCCOc2ccc(Nc3nc(-c4cccnc4)cs3)cc2C(F)(F)F)c1 [compound 949, N-(4-(4-m-tolylbut-3-ynyloxy)-3-(trifluoromethyl)phenyl)-4-(pyridin-3-yl)thiazol-2-amine] | < 1000 |
| CCCCCOc1ccc(Nc2nc(-c3cccnc3)c(F)s2)cc1C(F)(F)F [compound 950, 5-fluoro-N-(3-(trifluoromethyl)-4-(pentyloxy)phenyl)-4-(pyridin-3-yl)thiazol-2-amine] | < 1000 |
| CCCCCCCCS(=O)(=O)c1ccc(Nc2nc(-c3cccnc3)cs2)cc1 [compound 951, N-(4-(octylsulfonyl)phenyl)-4-(pyridin-3-yl)thiazol-2-amine] | < 1000 |
| CCCCCCCCS(=O)(=O)c1ccc(Nc2nc(-c3cccnc3)cs2)cc1C(F)(F)F [compound 952, N-(3-(trifluoromethyl)-4-(octylsulfonyl)phenyl)-4-(pyridin-3-yl)thiazol-2-amine] | < 1000 |
| CCCCCCCS(=O)(=O)CCc1ccc(Nc2nc(-c3cccnc3)cs2)cc1 [compound 953, N-(4-(2-(heptylsulfonyl)ethyl)phenyl)-4-(pyridin-3-yl)thiazol-2-amine] | 1000 to 10000 |

Source: patent US8088806B2 (Achillion Pharmaceuticals, Inc., priority 2005, dated 2012)
